Results: ChEMBL document CHEMBL5149986, “Spliceostatins and Derivatives: Chemical Syntheses and Biological Properties of Potent Splicing Inhibitors” (J Nat Prod, 2021)
Square brackets hold non-standard residues; d marks the D form. Peptide text beside a SMILES is read from it. * marks the point of attachment. Dolaproine = CO[C@@H]([C@@H]1CCCN1)[C@@H](C)C(=O)O; Dil = CC[C@H](C)[C@H](NC)[C@@H](CC(=O)O)OC; X1 = C[C@@H](N*)[C@@H](O)c1ccccc1; NMeV = CN[C@H](C(=O)O)C(C)C

Tests used:
MES-SA/Dx5 = assay: Cytotoxicity against human MES-SA/Dx5 cells assessed as inhibition in cell growth; format: functional, cell-based
MES-SA = assay: Cytotoxicity against human MES-SA cells assessed as inhibition in cell growth; format: functional, cell-based
[1] = Cytotoxicity against HEK293T cells assessed as inhibition in cell growth; format: toxicity, cell-based, HEK-293T; settings: human

Row | SMILES | IC50 (MES-SA/Dx5) [nM] | IC50 (MES-SA) [nM] | IC50 [1] [nM]
1 | CC[C@H](C)[C@@H]([C@@H](CC(=O)N1CCC[C@H]1[C@H](OC)[C@@H](C)C(=O)N[C@H](C)[C@@H](O)c1ccccc1)OC)N(C)C(=O)[C@@H](NC(=O)[C@@H](NC)C(C)C)C(C)C (H-[NMeV]V[Dil][Dolaproine]-X1) | 88.2 | 0.096 | 0.068
2 | CO[C@@H]1C[C@@]2(CN2)[C@H](O)[C@@H](/C=C/C(C)=C/C[C@@H]2O[C@H](C)[C@H](NC(=O)/C=C\[C@H](C)OC(C)=O)C[C@@H]2C)O1 | 210 | 0.6 | 0.144
3 | CC(=O)O[C@@H](C)/C=C\C(=O)N[C@@H]1C[C@H](C)[C@H](C/C=C(C)/C=C/[C@H]2O[C@H](CCN=[N+]=[N-])C[C@@]3(CO3)[C@@H]2O)O[C@@H]1C | 0.72 | 1.08 | 0.028
4 | CC(/C=C/[C@H]1O[C@H](C)C[C@@]2(CO2)[C@@H]1O)=C\C[C@@H]1O[C@H](C)[C@H](NC(=O)/C=C\[C@H](C)OC(=O)N2CCCCC2)C[C@@H]1C | 0.57 | 0.5 | 0.07
5 | CC(/C=C/[C@H]1O[C@H](CC(=O)OC(C)(C)C)C[C@@](O)(CCl)[C@@H]1O)=C\C[C@@H]1O[C@H](C)[C@H](NC(=O)/C=C\[C@H](C)OC(=O)C(C)C)C[C@@H]1C | 10.3 | 264 | 0.13
6 | CC(=O)O[C@@H](C)/C=C\C(=O)N[C@@H]1C[C@H](C)[C@H](C/C=C(C)/C=C/[C@H]2O[C@H](CC(=O)O)C[C@@]3(CO3)[C@@H]2O)O[C@@H]1C [THAILANSTATIN A] | > 400 | 419 | 296
7 | CC(=O)O[C@@H](C)/C=C\C(=O)N[C@@H]1C[C@H](C)[C@H](C/C=C(C)/C=C/[C@H]2O[C@H](CCC#N)C[C@@]3(CO3)[C@@H]2O)O[C@@H]1C | 2.6 | 0.82 | 0.099
8 | CCOC(=O)/C=C/C[C@@H]1C[C@@]2(CO2)[C@H](O)[C@@H](/C=C/C(C)=C/C[C@@H]2O[C@H](C)[C@H](NC(=O)/C=C\[C@H](C)OC(=O)C(C)C)C[C@@H]2C)O1 | 2.73 | 2.96 | 0.09
9 | CC(/C=C/[C@H]1O[C@H](C)C[C@@]2(CO2)[C@@H]1O)=C\C[C@@H]1O[C@H](C)[C@H](NC(=O)/C=C\[C@H](C)NC(=O)C(C)C)C[C@@H]1C | 4.91 | 0.23 | 0.015
10 | CO[C@@H]1C[C@@]2(CO2)[C@H](OC(C)=O)[C@@H](/C=C/C(C)=C/C[C@@H]2O[C@H](C)[C@H](NC(=O)/C=C\[C@H](C)OC(C)=O)C[C@@H]2C)O1 | 1.98 | 1.76 | 0.031
11 | CC(/C=C/[C@H]1O[C@H](C)C[C@@]2(CO2)[C@@H]1O)=C\C[C@@H]1O[C@H](C)[C@H](NC(=O)/C=C\[C@H](C)OC(=O)N2CCOCC2)C[C@@H]1C | 1.48 | 0.38 | 0.08
12 | CC(/C=C/[C@H]1O[C@H](CC(=O)O)C[C@@](O)(CCl)[C@@H]1O)=C\C[C@@H]1O[C@H](C)[C@H](NC(=O)/C=C\[C@H](C)OC(=O)C(C)C)C[C@@H]1C [THAILANSTATIN C] | 298 | 137 | 64.7
13 | CC(/C=C/[C@H]1O[C@H](C)C[C@@]2(CO2)[C@@H]1O)=C\C[C@@H]1O[C@H](C)[C@H](NC(=O)/C=C\[C@H](C)NC(=O)N2CCOCC2)C[C@@H]1C | 100 | 2.87 | 0.3
14 | CO[C@@H]1C[C@@]2(CO2)[C@H](O)[C@@H](/C=C/C(C)=C/C[C@@H]2O[C@H](C)[C@H](NC(=O)/C=C\[C@H](C)OC(=O)N(C)CCO)C[C@@H]2C)O1 | 11 | 0.63 | 0.009
15 | CC(/C=C/[C@H]1O[C@H](C)C[C@@]2(CO2)[C@@H]1O)=C\C[C@@H]1O[C@H](C)[C@H](NC(=O)/C=C\[C@H](C)OC(=O)N(C)C)C[C@@H]1C | 0.14 | 0.04 | 0.003
16 | CC(/C=C/[C@H]1O[C@H](C)C[C@@]2(CO2)[C@@H]1O)=C\C[C@@H]1O[C@H](C)[C@H](NC(=O)/C=C\[C@H](C)OC(=O)N2CCN(C(=O)OC(C)(C)C)CC2)C[C@@H]1C | 7.01 | 2.87 | 0.018
